# Experimental data as given in US20230293539A1, “MLL1-WDR5 PROTEIN-PROTEIN INTERACTION INHIBITOR COMPOUNDS AND USES THEREOF” (HUYABIO International, LLC, priority 2022, published 2023).
# Experiments:
# [1] = WBS (whole blood stability) assay; format: in vitro ADME; details: for % Remaining after 60 min incubation: 2 μM, 37° C.
# Method: WBS (whole blood stability) assay: The blood samples were collected freshly from multiple species including human, monkey, dog, rat and mouse. 2 μM of test compound and positive control were incubated with the whole blood at 37° C. at 0, 10, 30, 60, and 120 minutes in duplicate. After adding the stop solution, 200 μL of supernatant were analyzed by LC-MS/MS. The % remaining of test compound and T1/2 (min) were calculated and reported.
# [2] = Liver S9 stability assay; format: in vitro ADME, human; details: for half-life at 1 μM / microsomal CLint at 1 μM: Human liver S9; for % Remaining after 60 min incubation: Human liver S9, 1 μM, 5 mM GSH, 37° C.
# Method: (§1) Liver S9 stability assay: Test compounds (1 μM) and positive control were incubated with 5 mM GSH and liver S9 (1 mg protein/ml) from multiple species (including human, monkey, dog, rat and mouse) at 37° C. at 0, 10, 30, and 60 minutes in duplicate. After adding the stop solution, 100 μL of supernatant were analyzed by LC-MS/MS. The % remaining of test compound, T1/2 (min), and CLint (μL/min/mg) were calculated and were reported.
# [3] = Mouse PK (oral); format: in vivo, C57/B16 mice; details: for Cmax: plasma; for AUC(0-t) / half-life: C57/B16, plasma
# Method: Mouse PK: Animals were dosed with a single intravenous bolus or oral gavage administration in naïve C57/B16 mice (Beijing Vital River Laboratory Animal Co., LTD). Blood samples were collected at the respective sampling time points. The quantification of compound concentrations in mouse or rat plasma was quantified using LC-MS/MS method. Plasma concentration versus time data was analyzed by non-compartmental mode approaches using the WinNonlin software program (version 6.3 or above, Pharsight). Pharmacokinetic parameters, including C0 (initial concentration after drug administration), […], Vdss (volume of distribution), Cmax (maximum peak concentration of the drug), Tmax (time required to reach Cmax) T1/2 (time required for drug concentration to decrease by 50% after administration), AUC0-last (area under the concentration-time curve from dosing time t=0 to the time of the last measured concentration), AUC0-inf (total drug exposure across time), MRT0-last (mean residence time from dosing time t=0 to the time of the last measured concentration), MRT0-inf f (mean residence time of total drug exposure), bioavailability (%) (the percentage (or the fraction F) of an administered drug dose that reaches the systemic circulation) for IV and PO groups were calculated. See Table 7 and FIGS. 6A, 6B, 6C and 6D.
# [4] = Liver S9 stability assay; format: in vitro ADME, dog; details: for half-life at 1 μM / microsomal CLint at 1 μM: Dog liver S9; for % Remaining after 60 min incubation: Dog liver S9, 1 μM, 5 mM GSH, 37° C.
# Method: as §1
# [5] = biological target: WDR5 (Homo sapiens, UniProt P61964); assay: WDR5 TR-FRET Assay; format: binding; details: 5 nM WDR5 protein, 10 nM peptide, read-out: IC50 (MLL1-WDR5 PPI inhibitory activity)
# Method: WDR5 TR-FRET Assay Procedure: Stock compounds were transferred to the assay plate by Echo Liquid Handler. Reactions were performed in the assay buffer (1×PBS, 300 mM NaCl, 0.5 mM TCEP, 0.1% CHAPS) containing 5 nM WDR5 protein, 10 nM peptide (Ac-ARTEVHLRKS-[Ahx-Ahx][C]-Alexa Fluor 488-NH2) and 0.25 nM Tb-anti His antibody (Tb-Ab) in 384-well white plate (PerkinElmer) with a final volume of 20 μl. Compounds were incubated with WDR5 protein for 30 min at room temperature. Plates were covered, protected from light and incubated for 60 min. at room temperature after adding the peptide and Tb-Ab. EnVision Multimode Plate Reader (PerkinElmer) was used for the TR-FRET assay with excitation wavelength at 340 nm and emission wavelength at 495 and 520 nm. The ratio of the 520/495 nm wavelengths were used to assess the degree of the FRET signal. IC50 was calculated by fitting the inhibition data using XLfit software to sigmoidal dose-response model.
# [6] = Compound formulation stability assay; format: physicochemical; details: 10 mg/mL in 10% DMSO/10% solutol HS 15/80% water, 2-8° C.
# Method: Compound formulation stability assay: Test articles were formulated in 10% DMSO/10% solutol HS 15/80% water and stored at 4° C. Formulated compounds were analyzed by a HPLC-UV method for actual concentrations and % remaining on Day 1, 4 and 7 after formulation to determine the stability of the formulated test article. The HPLC system was equipped with Shimadzu LC-20 high-performance liquid chromatograph, SIL-20AC auto sampler, LC-20AB pump and SPD-M20A detector. A Waters XBridge C18 (4.6*100 mm) column was applied for the separation. […]
# [7] = Liver S9 stability assay; format: in vitro ADME, mouse; details: for half-life at 1 μM / microsomal CLint at 1 μM: Mouse liver S9; for % Remaining after 60 min incubation: Mouse liver S9, 1 μM, 5 mM GSH, 37° C.
# Method: as §1
# [8] = Liver S9 stability assay; format: in vitro ADME, rat; details: for half-life at 1 μM / microsomal CLint at 1 μM: Rat liver S9; for % Remaining after 60 min incubation: Rat liver S9, 1 μM, 5 mM GSH, 37° C.
# Method: as §1
# [9] = test system: MV 411 cells; assay: Cell Viability Assay (CellTiter-Glo); format: cell-based; details: Homo sapiens, MV4-11, 72 hours, read-out: IC50 (anti-proliferative activity against leukemia cells)
# Method: Cell lines and maintenance: All cell lines (MV 411) used for in vitro and in vivo studies were supplied as part of Wuxi AppTech cell bank. Cell lines were maintained in a medium supplemented with 10% heat inactivated fetal bovine serum at 37° C., in an atmosphere of 5% CO2, in air. The tumor cells were routinely subcultured twice weekly. The cells growing in an exponential growth phase were used for the in vitro cell potency and in vivo efficacy studies.
# EXAMPLE 1: Cell Viability Assay: For cell cytotoxicity assays, 2000 cells/well were plated in 384-well plates. Twenty four hours after plating, cells were treated with inhibitors at the indicated compound concentrations. On Day 3 (72 hours), cells were lysed with CellTiter-Glo® Luminescent Cell Viability Assay reagent (Promega) and luminescence was read using the EnVision Multi-plate reader. To calculate IC50, a dose-response curve is generated using a nonlinear regression model with a sigmoidal dose response. The formula of surviving rate is shown below. IC50 values were automatically generated by GraphPad Prism 8.0. See FIG. 1A and FIG. 1B and Tables 3 and 4.
# [10] = Dog PK (oral); format: in vivo, Beagle dogs; details: for Cmax / AUC(0-t) / half-life: Beagle, plasma
# Method: Dog PK: Fasted or fed non-naïve Beagle dogs (Marshall Bioresources, Beijing, China) were administered a single intravenous bolus or oral gavage administration of test compounds at respective doses. Blood samples for plasma isolation were collected from a peripheral vessel, from restrained, non-sedated animals at the respective sampling time points. The quantification of compound concentrations in dog plasma was quantified using LC-MS/MS method. Plasma concentration versus time data was analyzed by non-compartmental mode approaches using the WinNonlin software program (version 6.3 or above, Pharsight). Pharmacokinetic parameters, including C0, CL, Vdss, Cmax, Tmax T1/2, AUC0-last, AUC0-inf, MRT0-last, MRT0-inf, bioavailability (%) for IV and PO groups were calculated. See FIGS. 9A, […], 9C and FIGS. 10A, 10B, 10C, and 10D.
compound,measurement,setting,value
"CCN(CC)C(=O)c1cn(-c2cc(NC(=O)c3cc(N)c(F)c(C)c3Cl)c(N3C[C@@H](C)N(C)[C@@H](C)C3)cc2F)nn1 [HYBI-082, 1-(5-(5-amino-2-chloro-4-fluoro-3-methylbenzamido)-2-fluoro-4-((3S,5R)-3,4,5-trimethylpiperazin-1-yl)phenyl)-N,N-diethyl-1H-1,2,3-triazole-4-carboxamide]",half-life at 2 μM,[1]; Dog whole blood,> 2.41 h
same,% Remaining after 60 min incubation,[1]; Dog whole blood,90.6%
same,half-life at 2 μM,[1]; Human whole blood,11.9 h
same,% Remaining after 60 min incubation,[1]; Human whole blood,100%
same,half-life at 2 μM,[1]; Mouse whole blood,> 2.41 h
same,% Remaining after 60 min incubation,[1]; Mouse whole blood,82.4%
same,half-life at 2 μM,[1]; Rat whole blood,> 2.41 h
same,% Remaining after 60 min incubation,[1]; Rat whole blood,99.6%
same,half-life at 1 μM,[2],> 2.42 h
same,microsomal CLint at 1 μM,[2],< 4.8 µL/min/mg
same,% Remaining after 60 min incubation,[2],107%
same,F,[3]; 10 mpk,23.3%
same,F,[3]; 30 mpk,27.5%
same,Cmax,"[3]; C57/B16, 10 mg/kg, 10 mpk",1670 nM
same,Cmax,"[3]; C57/B16, 30 mg/kg, 30 mpk",4530 nM
same,AUC(0-t),"[3]; 10 mg/kg, 10 mpk",2.22 µM·h
same,half-life,"[3]; 10 mg/kg, 10 mpk",0.8 h
same,AUC(0-t),"[3]; 30 mg/kg, 30 mpk",7.61 µM·h
same,half-life,"[3]; 30 mg/kg, 30 mpk",2 h
same,half-life at 1 μM,[4],> 2.42 h
same,microsomal CLint at 1 μM,[4],< 4.8 µL/min/mg
same,% Remaining after 60 min incubation,[4],87.3%
same,IC50,[5],0.00532 µM
same,Accuracy % (Day 0),[6],96.3%
same,Formulation Appearance (Day 0),[6],clear
same,Remaining % (Day 0),[6],100%
same,Accuracy % (Day 1),[6],96.0%
same,Formulation Appearance (Day 1),[6],clear
same,Remaining % (Day 1),[6],100%
same,Accuracy % (Day 4),[6],99.3%
same,Formulation Appearance (Day 4),[6],clear
same,Remaining % (Day 4),[6],103%
same,Accuracy % (Day 7),[6],98.6%
same,Formulation Appearance (Day 7),[6],clear
same,Remaining % (Day 7),[6],102%
same,half-life at 1 μM,[7],> 2.42 h
same,microsomal CLint at 1 μM,[7],< 4.8 µL/min/mg
same,% Remaining after 60 min incubation,[7],87.7%
same,half-life at 1 μM,[8],> 2.42 h
same,microsomal CLint at 1 μM,[8],< 4.8 µL/min/mg
same,% Remaining after 60 min incubation,[8],98.3%
same,IC50,[9],7.68 µM
"C[C@@H]1CN(c2ncc(-c3cc(Nc4ncnc(Cl)c4N)c(N4CCN(C)[C@@H](C)C4)cc3F)cn2)C[C@H](C)O1 [DDO-2213_023, 6-chloro-N4-(5-(2-((2S,6R)-2,6-dimethylmorpholino)pyrimidin-5-yl)-2-((S)-3,4-dimethylpiperazin-1-yl)-4-fluorophenyl)pyrimidine-4,5-diamine]",half-life at 2 μM,[1]; Dog whole blood,> 2.41 h
same,% Remaining after 60 min incubation,[1]; Dog whole blood,97.3%
same,half-life at 2 μM,[1]; Human whole blood,8.75 h
same,% Remaining after 60 min incubation,[1]; Human whole blood,103%
same,half-life at 2 μM,[1]; Mouse whole blood,> 2.41 h
same,% Remaining after 60 min incubation,[1]; Mouse whole blood,103%
same,half-life at 2 μM,[1]; Rat whole blood,> 2.41 h
same,% Remaining after 60 min incubation,[1]; Rat whole blood,103%
same,half-life at 1 μM,[2],> 2.42 h
same,microsomal CLint at 1 μM,[2],< 4.8 µL/min/mg
same,% Remaining after 60 min incubation,[2],81.8%
same,F,[3]; 10 mpk,82.5%
same,F,[3]; 30 mpk,93.8%
same,Cmax,"[3]; C57/B16, 10 mg/kg, 10 mpk",1320 nM
same,Cmax,"[3]; C57/B16, 30 mg/kg, 30 mpk",3430 nM
same,AUC(0-t),"[3]; 10 mg/kg, 10 mpk",16.4 µM·h
same,half-life,"[3]; 10 mg/kg, 10 mpk",11.1 h
same,AUC(0-t),"[3]; 30 mg/kg, 30 mpk",56 µM·h
same,half-life,"[3]; 30 mg/kg, 30 mpk",13.3 h
same,half-life at 1 μM,[4],> 2.42 h
same,microsomal CLint at 1 μM,[4],< 4.8 µL/min/mg
same,% Remaining after 60 min incubation,[4],112%
same,Accuracy % (Day 0),[6],89.9%
same,Formulation Appearance (Day 0),[6],clear solution
same,Remaining % (Day 0),[6],100%
same,Accuracy % (Day 1),[6],81.3%
same,Formulation Appearance (Day 1),[6],clear solution
same,Remaining % (Day 1),[6],90.4%
same,Accuracy % (Day 4),[6],92.2%
same,Formulation Appearance (Day 4),[6],clear solution
same,Remaining % (Day 4),[6],100%
same,Accuracy % (Day 7),[6],91.5%
same,Formulation Appearance (Day 7),[6],clear solution
same,Remaining % (Day 7),[6],99.1%
same,half-life at 1 μM,[7],2.1 h
same,microsomal CLint at 1 μM,[7],5.5 µL/min/mg
same,% Remaining after 60 min incubation,[7],71.5%
same,half-life at 1 μM,[8],> 2.42 h
same,microsomal CLint at 1 μM,[8],< 4.8 µL/min/mg
same,% Remaining after 60 min incubation,[8],101%
same,IC50,[9],4.06 µM
same,F,[10]; 1.5 mpk,105.0%
same,F,[10]; 4.5 mpk,88.8%
same,Cmax,"[10]; 1.5 mg/kg, 1.5 mpk",188 nM
same,Cmax,"[10]; 4.5 mg/kg, 4.5 mpk",445 nM
same,AUC(0-t),"[10]; 1.5 mg/kg, 1.5 mpk",5.28 µM·h
same,half-life,"[10]; 1.5 mg/kg, 1.5 mpk",63.6 h
same,AUC(0-t),"[10]; 4.5 mg/kg, 4.5 mpk",13.4 µM·h
same,half-life,"[10]; 4.5 mg/kg, 4.5 mpk",48.2 h
